We go through nine molecules from patent US9840508B2, “N-acyl-(3-substituted)-(8-methyl)-5,6-dihydro-[1,2,4]triazolo[4,3-a] pyrazines as selective NK-3 receptor antagonists, pharmaceutical composition, methods for use in NK-3 receptor-mediated disorders” (EUROSCREEN SA, priority 2013, dated 2017).

One data set concerns the target human NK-2 receptor (Homo sapiens (Human), UniProt P21452). Nature of the data set: Selectivity binding assay, human NK-2 ([125I]-Neurokinin A). Particulars: CHO cell membranes; 0.1 nM [125I]-Neurokinin A; read-out: hNK-2 (Ki). The protocol: (§1) Selectivity of the compounds of the invention was determined over the other human NK receptors, namely NK-1 and NK-2 receptors.
The affinity of compounds of the invention for the NK-2 receptor was evaluated in CHO recombinant cells which express the human NK-2 receptor. Membrane suspensions were prepared from these cells. The following radioligand [^125I]-Neurokinin A (PerkinElmer Cat#NEX252) was used in this assay. Binding assays were performed in a 25 mM HEPES/1 mM CaCl2/5 mM MgCl2/0.5% BSA/10 μg/ml saponin, at pH 7.4. Binding assays consisted of 25 μl of membrane suspension (approximately 3.75 μg of protein/well in a 96 well plate), 50 μl of compound or reference ligand (Neurokinin A) at increasing concentrations (diluted in assay buffer) and 0.1 nM [^125I]-Neurokinin A. The plate was incubated 60 min at 25° C. in a water bath and then filtered over GF/C filters (Perkin Elmer, 6005174, presoaked in assay buffer without saponine for 2 h at room temperature) with a Filtration unit (Perkin Elmer). The radioactivity retained on the filters was measured by using the TopCount-NXT reader (Packard). Competition curves were obtained for compounds of the invention and the concentrations of compounds which displaced 50% of bound radioligand (IC50) were determined and then apparent inhibition constant Ki values were calculated by the following equation: Ki=IC50/(1+[L]/KD) where [L] is the concentration of free radioligand and KD is its dissociation constant at the receptor, derived from saturation binding experiments (Cheng and Prusoff, 1973).

The next data set deals with plasma protein. Nature of the data set: Determination of plasma protein binding (rapid equilibrium dialysis). The following applies: 4 hours at 37° C. It counts as in vitro ADME. From the text:
Determination of Plasma Protein Binding
The pharmacokinetic and pharmacodynamic properties of chemicals/drugs are largely a function of the reversible binding of chemicals to plasma or serum proteins. Generally, only the unbound or “free fraction” of a drug is available for diffusion or transport across cell membranes, and for interaction with a pharmacological/toxicological target. Consequently, the extent of the plasma protein binding (PPB) of a compound influences its action as well as its distribution and elimination.
The determination of plasma protein binding (PPB) of a compound is enabled by equilibrium dialysis, an accepted and standard method for reliable estimation of the non-bound drug fraction in plasma. RED (Rapid Equilibrium Dialysis) device insert is made of two side-by-side chambers separated by an O-ring-sealed vertical cylinder of dialysis membrane (MWCO˜8,000). Plasma containing drug (at 5 μM or blood concentrations otherwise corresponding to efficacious doses, if known) is added to one chamber while buffer is added to the second. After 4 hours incubation at 37° C. under shaking, an aliquot is removed from each chamber and analyzed by a LC-MS/MS procedure enables the determination of both free and bound drug.
The percentages provided in Table 4 represent for the compounds of the invention the bound drug fraction to the plasma protein. The “free fraction” may be calculated as 100%−% rPPB (i.e. the complementary percentage of that disclosed in Table 4, corresponding to the drug concentration that is unbound and therefore available to engage biological target and elicit pharmacological activity).
In general terms: In equilibrium dialysis free small molecules cross a membrane that holds back macromolecules.

Data set [1] has as its target T1, human NK-3 receptor (Homo sapiens (Human), UniProt P29371). Briefly: 3H-SB222200 binding competition assay with human NK-3 receptor. The protocol: The affinity of compounds of the invention for the human NK-3 receptor was determined by measuring the ability of compounds of the invention to competitively and reversibly displace a well-characterized NK-3 radioligand in a concentration-dependent manner.
^3H-SB222200 Binding Competition Assay with Human NK-3 Receptor
The ability of compounds of the invention to inhibit the binding of the NK-3 receptor selective antagonist ^3H-SB222200 was assessed by an in vitro radioligand binding assay. Membranes were prepared from Chinese hamster ovary recombinant cells stably expressing the human NK-3 receptor. The membranes were incubated with 5 nM ^3H-SB222200 (ARC) in a HEPES 25 mM/NaCl 0.1M/CaCl2 1 mM/MgCl2 5 mM/BSA 0.5%/Saponin 10 μg/ml buffer at pH 7.4 and various concentrations of compounds of the invention. The amount of ^3H-SB222200 bound to the receptor was determined after filtration by the quantification of membrane associated radioactivity using the TopCount-NXT reader (Packard).

In a further data set the target is human NK-1 receptor (Homo sapiens (Human), UniProt P25103). Nature of the data set: Selectivity binding assay, human NK-1 ([3H] substance P). Particulars: CHO cell membranes; 2 nM [3H] substance P; read-out: hNK-1 (Ki). How it is done:
as §1
The affinity of compounds of the invention for the NK-1 receptor was evaluated in CHO recombinant cells which express the human NK-1 receptor. Membrane suspensions were prepared from these cells. The following radioligand: [^3H] substance P (PerkinElmer Cat#NET111520) was used in this assay. Binding assays were performed in a 50 mM Tris/5 mM MnCl2/150 mM NaCl/0.1% BSA at pH 7.4. Binding assays consisted of 25 μl of membrane suspension (approximately 5 μg of protein/well in a 96 well plate), 50 μl of compound or reference ligand (Substance P) at increasing concentrations (diluted in assay buffer) and 2 nM [^3H] substance P. The plate was incubated 60 min at 25° C. in a water bath and then filtered over GF/C filters (Perkin Elmer, 6005174, presoaked in 0.5% PEI for 2 h at room temperature) with a Filtration unit (Perkin Elmer). The radioactivity retained on the filters was measured by using the TopCount-NXT reader (Packard). Competition curves were obtained for compounds of the invention and the concentrations of compounds which displaced 50% of bound radioligand (IC50) were determined and then apparent inhibition constant Ki values were calculated by the following equation: Ki=IC50/(1+[L]/KD) where [L] is the concentration of free radioligand and KD is its dissociation constant at the receptor, derived from saturation binding experiments (Cheng and Prusoff, 1973).

In data set [2] the target is T1, human NK-3 receptor. Briefly: Aequorin functional assay with human NK-3 receptor (antagonist testing). The class given is cell-based. Particulars: CHO cells expressing human NK-3 receptor; agonist NKA at EC80 (3 nM); read-out: Functional assay: Aequorin assay with human NK-3 receptor hNK-3 - AEQ (antagonist IC50). How it is done:
Aequorin Assay with Human NK-3 Receptor
Changes in intracellular calcium levels are a recognized indicator of G protein-coupled receptor activity. The efficacy of compounds of the invention to inhibit NKA-mediated NK-3 receptor activation was assessed by an in vitro Aequorin functional assay. Chinese Hamster Ovary recombinant cells expressing the human NK-3 receptor and a construct that encodes the photoproteinapoaequorin were used for this assay. In the presence of the cofactor coelenterazine, apoaequorin emits a measurable luminescence that is proportional to the amount of intracellular (cytoplasmic) free calcium.
The antagonist activity of compounds of the invention is measured following pre-incubation (3 minutes) of the compound (at various concentrations) with the cells, followed by addition of the reference agonist (NKA) at a final concentration equivalent to the EC80 (3 nM) and recording of emitted light (FDSS 6000 Hamamatsu) over the subsequent 90-second period. The intensity of the emitted light is integrated using the reader software. Compound antagonist activity is measured based on the concentration-dependent inhibition of the luminescence response to the addition of Neurokinin A.
The IC50 values shown in Table 2 indicate that compounds of the invention are potent NK-3 antagonist compounds.

Where [3] appears, read: CHO cell membranes, 5 nM 3H-SB222200, Table 2, read-out: Competitive binding assay with human NK-3 receptor hNK-3 (Ki).
The mark [4] stands for this setting: Table 3 (selectivity table), read-out: hNK-3 (Ki).

Like-named read-outs stand apart in the source and are kept apart here. Some results are limits rather than exact numbers.

human NK-1 receptor, sequence (P25103 whole entry): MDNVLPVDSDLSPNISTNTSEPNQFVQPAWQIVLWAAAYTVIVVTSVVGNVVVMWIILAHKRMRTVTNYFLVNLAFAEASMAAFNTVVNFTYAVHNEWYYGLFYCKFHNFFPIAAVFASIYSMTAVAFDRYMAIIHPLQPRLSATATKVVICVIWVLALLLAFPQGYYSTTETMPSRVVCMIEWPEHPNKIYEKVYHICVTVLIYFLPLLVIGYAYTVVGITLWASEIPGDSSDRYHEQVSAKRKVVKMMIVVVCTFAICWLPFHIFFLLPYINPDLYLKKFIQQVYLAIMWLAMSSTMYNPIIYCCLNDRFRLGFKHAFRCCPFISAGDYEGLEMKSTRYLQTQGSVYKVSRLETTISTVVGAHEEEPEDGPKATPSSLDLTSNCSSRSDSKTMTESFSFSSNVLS
T1 sequence (P29371 whole entry): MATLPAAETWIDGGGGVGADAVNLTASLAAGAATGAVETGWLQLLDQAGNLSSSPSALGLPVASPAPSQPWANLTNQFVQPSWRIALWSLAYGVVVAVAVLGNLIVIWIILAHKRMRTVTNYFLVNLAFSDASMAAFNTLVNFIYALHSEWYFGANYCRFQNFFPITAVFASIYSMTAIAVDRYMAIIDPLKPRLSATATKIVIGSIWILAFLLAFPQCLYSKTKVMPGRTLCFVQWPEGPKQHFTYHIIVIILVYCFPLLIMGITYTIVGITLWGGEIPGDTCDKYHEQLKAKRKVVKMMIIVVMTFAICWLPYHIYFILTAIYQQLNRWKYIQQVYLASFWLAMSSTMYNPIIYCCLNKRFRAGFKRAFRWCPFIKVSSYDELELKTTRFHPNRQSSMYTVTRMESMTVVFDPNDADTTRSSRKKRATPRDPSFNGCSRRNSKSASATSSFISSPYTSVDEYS
human NK-2 receptor, sequence (P21452 whole entry): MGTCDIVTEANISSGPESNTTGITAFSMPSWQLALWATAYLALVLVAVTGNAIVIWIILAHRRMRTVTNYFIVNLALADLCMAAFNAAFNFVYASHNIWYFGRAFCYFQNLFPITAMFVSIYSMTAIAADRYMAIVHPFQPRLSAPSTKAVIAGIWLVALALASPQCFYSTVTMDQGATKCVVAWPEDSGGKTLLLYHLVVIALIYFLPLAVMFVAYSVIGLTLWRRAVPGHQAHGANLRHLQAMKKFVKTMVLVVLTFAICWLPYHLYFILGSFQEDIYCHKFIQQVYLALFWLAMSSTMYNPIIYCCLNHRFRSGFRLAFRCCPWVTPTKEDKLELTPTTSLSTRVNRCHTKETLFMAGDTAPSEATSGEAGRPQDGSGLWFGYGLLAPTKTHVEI

A word on the Ki: it is the dissociation constant of the complex between target and ligand, obtained from inhibition or displacement. By IC50 is commonly meant the midpoint of a concentration-inhibition curve. In the case of `C[C@@H]1c2nnc(-c3csc(C(F)(F)F)n3)n2CCN1C(=O)c1ccc(F)c(F)c1` [Compound 13, (R)-(3,4-difluorophenyl)(8-methyl-3-(2-(trifluoromethyl)thiazol-4-yl)-5,6-dihydro-[1,2,4]triazolo[4,3-a]pyrazin-7(8H)-yl)methanone], the Ki was determined as 7000 nM at human NK-2 receptor, 20 nM at human NK-3 receptor [1] (setting [3]), 20 nM at human NK-3 receptor [1] (setting [4]) and 21000 nM on human NK-1 receptor. In addition, the “Exposure (% rPPB), bound drug fraction to the plasma protein” value (shortened to “Exposure (% rPPB), bound drug fraction”) with plasma protein stood at 51%. Also, on human NK-3 receptor [2], the IC50 stood at 26 nM.

On to `C[C@@H]1c2nnc(-c3csc(C(F)(F)F)n3)n2CCN1C(=O)c1ccc(F)c(F)c1F` [Compound 14, (R)-(8-methyl-3-(2-(trifluoromethyl)thiazol-4-yl)-5,6-dihydro-[1,2,4]triazolo[4,3-a]pyrazin-7(8H)-yl)(2,3,4-trifluorophenyl)methanone], for which the inhibition constant (Ki) on human NK-2 receptor was found to be 15000 nM; on human NK-3 receptor [1] (setting [3]), 40 nM; on human NK-3 receptor [1] (setting [4]), 40 nM; at human NK-1 receptor it was 28000 nM. In addition, the “Exposure (% rPPB), bound drug fraction” value in the data set on plasma protein is recorded as 69%. For the same molecule, the IC50 at human NK-3 receptor [2] came to 59 nM.

For the molecule `Cc1ccc(-c2nnc3n2CCN(C(=O)c2ccc(Cl)c(F)c2)[C@@H]3C)o1` [Compound 9, (R)-(4-chloro-3-fluorophenyl)(8-methyl-3-(5-methylfuran-2-yl)-5,6-dihydro-[1,2,4]triazolo[4,3-a]pyrazin-7(8H)-yl)methanone], the Ki came to 14000 nM at human NK-2 receptor, 38 nM on human NK-3 receptor [1] (setting [3]), 38 nM on human NK-3 receptor [1] (setting [4]) and 13000 nM at human NK-1 receptor. In addition, the “Exposure (% rPPB), bound drug fraction” value in the data set with plasma protein turned out to be 68%. In addition, on human NK-3 receptor [2], the half-maximal inhibitory concentration (IC50) turned out to be 53 nM.

`Cc1nc(-c2nnc3n2CCN(C(=O)c2ccc(F)cc2)[C@@H]3C)cs1` [Compound 2, (R)-(4-fluorophenyl)(8-methyl-3-(2-methylthiazol-4-yl)-5,6-dihydro-[1,2,4]triazolo[4,3-a]pyrazin-7(8H)-yl)methanone]: the inhibition constant Ki on human NK-2 receptor is more than 30000 nM; on human NK-3 receptor [1] (setting [3]) it was 100 nM; at human NK-3 receptor [1] (setting [4]) it was 100 nM; on human NK-1 receptor, more than 30000 nM. Also, in the data set with plasma protein, the “Exposure (% rPPB), bound drug fraction” value turned out to be 17%. Further, the IC50 on human NK-3 receptor [2] came to 160 nM.

Consider `C[C@@H]1c2nnc(-c3csc(C(F)(F)F)n3)n2CCN1C(=O)c1ccc(F)c(Cl)c1` [Compound 16, (R)-(3-chloro-4-fluorophenyl)(8-methyl-3-(2-(trifluoromethyl)thiazol-4-yl)-5,6-dihydro-[1,2,4]triazolo[4,3-a]pyrazin-7(8H)-yl)methanone], for which the Ki on human NK-2 receptor amounted to 1500 nM; at human NK-3 receptor [1] (setting [3]), 14 nM; on human NK-3 receptor [1] (setting [4]) it was 14 nM; on human NK-1 receptor, 9400 nM. The “Exposure (% rPPB), bound drug fraction” value in the data set with plasma protein amounted to 82%. Further, the IC50 at human NK-3 receptor [2] amounted to 23 nM.

For `Cc1ccc(-c2nnc3n2CCN(C(=O)c2ccc(F)c(F)c2)[C@@H]3C)o1` [Compound 5, (R)-(3,4-difluorophenyl)(8-methyl-3-(5-methylfuran-2-yl)-5,6-dihydro-[1,2,4]triazolo[4,3-a]pyrazin-7(8H)-yl)methanone], the Ki on human NK-2 receptor is 31000 nM; at human NK-3 receptor [1] (setting [3]), 42 nM; on human NK-3 receptor [1] (setting [4]), 42 nM; at human NK-1 receptor, more than 30000 nM. In addition, in the data set with plasma protein, the “Exposure (% rPPB), bound drug fraction” value was found to be 27%. Moreover, the IC50 at human NK-3 receptor [2] stood at 52 nM.

As to `Cc1ccc(-c2nnc3n2CCN(C(=O)c2cc(F)c(F)c(F)c2F)[C@@H]3C)o1` [Compound 4, (R)-(8-methyl-3-(5-methylfuran-2-yl)-5,6-dihydro-[1,2,4]triazolo[4,3-a]pyrazin-7(8H)-yl)(2,3,4,5-tetrafluorophenyl)methanone], the inhibition constant Ki on human NK-2 receptor was 30000 nM; on human NK-3 receptor [1] (setting [3]) it was 52 nM; on human NK-3 receptor [1] (setting [4]) it was 52 nM; on human NK-1 receptor, more than 30000 nM. Also, in the data set on plasma protein, the “Exposure (% rPPB), bound drug fraction” value turned out to be 30%. Moreover, at human NK-3 receptor [2], the IC50 came out at 72 nM.

On to `C[C@@H]1c2nnc(-c3csc(C(F)(F)F)n3)n2CCN1C(=O)c1cc(F)c(F)c(F)c1` [Compound 15, (R)-(8-methyl-3-(2-(trifluoromethyl)thiazol-4-yl)-5,6-dihydro-[1,2,4]triazolo[4,3-a]pyrazin-7(8H)-yl)(3,4,5-trifluorophenyl)methanone], for which the inhibitory constant (Ki) was determined as 3500 nM on human NK-2 receptor, 13 nM at human NK-3 receptor [1] (setting [3]), 13 nM on human NK-3 receptor [1] (setting [4]) and 24000 nM on human NK-1 receptor. The “Exposure (% rPPB), bound drug fraction” value in the data set with plasma protein turned out to be 60%. At human NK-3 receptor [2], the IC50 was 24 nM.

Turning to `Cc1ccc(-c2nnc3n2CCN(C(=O)c2ccc(F)c(Cl)c2)[C@@H]3C)o1` [Compound 8, (R)-(3-chloro-4-fluorophenyl)(8-methyl-3-(5-methylfuran-2-yl)-5,6-dihydro-[1,2,4]triazolo[4,3-a]pyrazin-7(8H)-yl)methanone], the Ki on human NK-2 receptor was found to be 9100 nM; at human NK-3 receptor [1] (setting [3]), 44 nM; on human NK-3 receptor [1] (setting [4]) it was 44 nM; on human NK-1 receptor it was 18000 nM. Moreover, in the data set with plasma protein, the “Exposure (% rPPB), bound drug fraction” value worked out at 47%. The IC50 on human NK-3 receptor [2] was 62 nM.
